Results: US10941126B2, “Bridged bicycloalkyl-substituted aminothiazoles and their methods of use” (Temple University—Of The Commonwealth System of Higher …, priority 2017, dated 2021)

Columns and labels:
YB5 cells [1] = assay: GFP reactivation in YB5 cells (flow cytometry); type: cell-based, human; conditions: for GFP reactivation activity: multiple doses, four-day drug treatment in YB5
YB5 cells [2] = assay: RNA-seq in YB5 cells; type: cell-based, human; conditions: after excluding early response genes
Procedure: RNA from experiments in biological triplicates was isolated using RNeasy Mini Plus Kit (QIAGEN) following the manufacturer's instructions. Strand-specific RNA libraries were generated from 1 μg of RNA using TruSeq stranded total RNA with Ribo-Zero Gold (Illumina). Sequencing was performed using single end reads (50 bp, average 50 million reads per sample) on the HiSeq2500 platform (Illumina) at Fox Chase Cancer Center Genomic Facility. Sequenced reads were aligned to the hg19 genome assembly using TopHat2 (Kim, D., Pertea, G., Trapnell, C., Pimentel, H., Kelley, R., and Salzberg, S. L. (2013). Genome Biol 14, R36). The expression level and fold change of each treatment group was evaluated using EdgeR (Robinson, M. D., McCarthy, D. J., and Smyth, G. K. (2010), Bioinformatics 26, 139-140). Genes that had 0 reads across all samples were excluded. In order to get rid of batch effects, samples were normalized using RUVr method from the RUVseq package (Risso, D., Ngai, J., Speed, T. P., and Dudoit, S. (2014). Normalization of RNA-seq data using factor analysis of control genes or samples. Nat Biotechnol 32, 896-902). RNA data were deposited in the GEO database with the accession number GSE104837.

YB5 cells [3] = assay: GFP reactivation in YB5 cells (flow cytometry); type: cell-based, human; conditions: for Emax at 1 µM / Emax at 5 µM / Emax at 10 µM / Emax at 25 µM: Homo sapiens, 24 h; for Emax at 1 µM: read-out: relative activity to Depsipeptide @ 1 μM %; for Emax at 5 µM: read-out: relative activity to Depsipeptide @ 5 μM %; for Emax at 10 µM: read-out: relative activity to Depsipeptide @ 10 μM %; for Emax at 25 µM: read-out: relative activity to Depsipeptide @ 25 μM %
Text: To screen the compounds of the invention for epigenetic anti-cancer activity the YB5 cell-based system, which is derived from the human colon cancer cell line SW48, was used (Si et al., 2010, Cancer Res. 70:6968-6977; Raynal et al., 2012, Cancer Res. 72:1170-1181). YB5 cells contain a single insertion of cytomegalovirus (CMV) promoter driving green fluorescent protein (GFP) gene. GFP expression is silenced in >99.9% of YB5 cells by epigenetic mechanisms. In YB5 cells, the inserted GFP gene behaves similarly to endogenous tumor suppressor genes (TSGs) silenced by epigenetic mechanisms, and it can be reactivated by epigenetic anti-cancer agents such as DNA methylation inhibitors and/or HDAC inhibitors such as depsipeptide (Si et al., 2010, Cancer Res. 70:6968-6977; Raynal et al., 2012, Cancer Research, 72:1170-1181; Wu et al., 2008, Mol. Cell Biol, 28:3219-3235). Thus, reactivation of GFP expression and the resulting fluorescence is a measure of epigenetic anti-cancer activity.
The following procedure may be used to identify compounds of useful in the invention. YB5 cells cultured in L-15 medium supplemented with 10% fetal bovine serum and 1% P/S are treated for 24 hours with varying concentrations (50 nM, 100 nM, 500 nM, 1 μM, 5 μM, 10 μM, 25 μM, and 50 μM) of test compounds. After treatment, cells are trypsinized and re-suspended in cell culture media with propidium iodide (PI) to stain dead cells. Reactivation of GFP is measured using flow cytometry to identify the GFP positive population. The relative activities are expressed as the percent of the response compared to treatment with 20 nM HDACi depsipeptide for 24 hours. YB5 cells are grown in 1% CO2 atmosphere at 37° C.
NDL-3040 compound library consists of 3040 chemically diverse compounds that are semi-natural, derived from natural compounds, or synthetic compounds that are natural-compound-like. The small molecules were arrayed in 96-well plates as 10 mM stocks in 100% DMSO and were purchased from TimTec Inc. An aminothiazole analog library (93 small molecules) was also purchased from the same vendor and was in a 96-well plate format as 10 mM stocks in 100% DMSO. The 3040 compounds were screened at 25 μM for 24 hr. All plates were kept at −80° C. before use. YB5 cells growing in log phase (70-80% confluency) in 96-well plates were used. Each experimental 96-well plate contained 80 different compounds. Compounds were dispensed using an INTEGRA VIAFLO96 96-well pipette. After a 24 hr drug treatment, cells were trypsinized for 10 mins and re-suspended in L-15 medium containing propidium iodide (PI) to stain for dead cells. A total of 10000 cells per well were analyzed using Millipore Guava flow cytometer (EMD, Millipore). GFP positive percentage was calculated by excluding all the PI positive cells. After finishing the screening, the average Z-factor
For drug screening and dose response validations, GFP positive cells were detected by Millipore Guava flow cytometer (EMD, Millipore). Cell cycle analysis was performed using BD FACSCalibur™ by propidium iodide staining four days after drug treatment. Sub-G1 population percentage was also included to measure apoptotic cell proportion. Data were analyzed using FlowJo software version 10.2. For the cell differentiation analysis, cells were washed and stained with propidium iodide (PI), CD11 b (BD Biosciences, #562793) and the isotype control IgG (BD Biosciences, #555748). Flow cytometry analysis was performed on a Millipore Guava flow cytometer (EMD, Millipore). For the ID8 in vivo experiments, ascites was drained from 5-10 mice per group and incubated in ACK buffer (Thermo Fisher) to lyse red blood cells for 10 minutes, then washed. Ascites from each mouse was individually lysed and prepared for flow cytometry. Mononuclear cells collected were cultured for 4 hours in RPMI with 5% Fetal Bovine Serum and in the presence of Cell Stimulation Cocktail (plus protein transport inhibitors; eBioscience). […]

ID8 = ID8 ovarian cancer syngeneic immunocompetent mouse model; type: in vivo
Procedure: For drug screening and dose response validations, GFP positive cells were detected by Millipore Guava flow cytometer (EMD, Millipore). Cell cycle analysis was performed using BD FACSCalibur™ by propidium iodide staining four days after drug treatment. Sub-G1 population percentage was also included to measure apoptotic cell proportion. Data were analyzed using FlowJo software version 10.2. For the cell differentiation analysis, cells were washed and stained with propidium iodide (PI), CD11 b (BD Biosciences, #562793) and the isotype control IgG (BD Biosciences, #555748). Flow cytometry analysis was performed on a Millipore Guava flow cytometer (EMD, Millipore). For the ID8 in vivo experiments, ascites was drained from 5-10 mice per group and incubated in ACK buffer (Thermo Fisher) to lyse red blood cells for 10 minutes, then washed. Ascites from each mouse was individually lysed and prepared for flow cytometry. Mononuclear cells collected were cultured for 4 hours in RPMI with 5% Fetal Bovine Serum and in the presence of Cell Stimulation Cocktail (plus protein transport inhibitors; eBioscience). Cells were then washed and stained for cell surface markers including Live/Dead (eBioscience #65-0865-18), CD45 (BD Biosciences, #563891), CD3 (BD Biosciences, #560527), MHC II (Biolegend #107619, Isotype Control #400627), CD80 (BD Biosciences, #553769), CD86 (BD Biosciences, #558703) and CD11c (BD Biosciences, #564079). Flow cytometry acquisition was performed on an LSRII cytometer (BD Biosciences) and data were analyzed using FlowJo software version 10.2.
2.5×10^5 ID8-VEGF-Defensin cells were injected i.p. into 7-8-week-old female C57BL/6NHsd (C57Bl/6) mice. Three days after injection, 1 mg/kg SNS-032, 10 mg/kg SNS-032, or 5% DMSO in PBS (vehicle control) was administered i.p. every 3 days for the duration of the experiment. α-PD-1 (200 ug/mouse) or IgG control were given on days 17, 20, 24, and 27 after injection. α-PD-1 (1 mg/mL in saline) was utilized. Mouse IgG isotype control was purchased from Leinco Technologies and diluted in PBS.

YB5 cells [4] = assay: qPCR gene expression in YB5 cells; type: cell-based, human; conditions: 24 hr treatment
Procedure: Total RNA was extracted using TRIzol reagent (Invitrogen) following the manufacturer's protocol and RNA concentrations were measured using Nanodrop. cDNAs were synthesized using High Capacity cDNA Reverse Transcription Kit (ThermoFisher) and qPCR was performed using either ready-made TaqMan® assays or SYBR-green using custom-designed primers. All the data were analyzed using Applied Biosystems software (StepOne™ Software V2.3). For all experiments, relative expression levels of the target genes were determined by calculating the 2^−ΔΔCt values. All experiments were performed at least in triplicates. Either GAPDH or 18S rRNA was used as an internal normalization control for protein coding genes. RPLPO was used as an internal normalization control for ERVs. All SYBR-green primers were described previously and are listed in Table 1 along with TaqMan® probes used.

Row | Compound | Emax at 1 µM (YB5 cells [3]) [%] | Emax at 5 µM (YB5 cells [3]) [%] | Emax at 10 µM (YB5 cells [3]) [%] | Emax at 25 µM (YB5 cells [3]) [%] | relative activity to Depsipeptide @ 500 nM % (YB5 cells [3]) [%] | further results
1 | Cc1c[nH]c(-c2cnc(NCCNc3ccc(C#N)cn3)nc2-c2ccc(Cl)cc2Cl)n1 [CHR99021] | – | – | – | – | – | GFP reactivation activity (YB5 cells [1]): no GFP reactivation activity
2 | Nc1ncn([C@H]2C[C@H](O)[C@@H](CO)O2)c(=O)n1 [DAC, decitabine] | – | – | – | – | – | low expressed genes (RPKM<0.31) down (YB5 cells [2]): 7; low expressed genes (RPKM<0.31) up (YB5 cells [2]): 1238
3 | [Cl-].[Li+] [LiCl] | – | – | – | – | – | GFP reactivation activity (YB5 cells [1]): no GFP reactivation activity
4 | COc1cc(C(=O)c2sc(N[C@H]3CC4CCC3C4)nc2N)cc(OC)c1OC (stereo partly drawn) [MC180251, (4-amino-2-(((2S)-bicyclo[2.2.1]heptan-2-yl)amino)thiazol-5-yl)(3,4,5-trimethoxyphenyl)methanone] | 0 | 0 | 0 | 0 | – | relative activity to Depsipeptide @ 50 μM % (YB5 cells [3]): 0.00%
5 | Nc1nc(N[C@H]2C[C@@H]3CC[C@H]2C3)sc1C(=O)c1cc2c(cc1[N+](=O)[O-])OCO2 [MC180300] | 3.87 | 35.6 | 51.6 | 46.9 | 0.68 | –
6 | Nc1nc(N[C@H]2CC3CCC2C3)sc1C(=O)c1cc2c(cc1[N+](=O)[O-])OCCO2 (stereo partly shown) [MC180312] | 9.73 | 35.6 | 42.3 | 9 | – | relative activity to Depsipeptide @ 50 μM % (YB5 cells [3]): 6.38%
7 | Nc1nc(N[C@H]2CC3CCC2C3)sc1C(=O)c1cccc([N+](=O)[O-])c1 (stereo partly shown) [MC180339] | 3.05 | 16.9 | 29.2 | 8.71 | 3.29 | –
8 | Nc1nc(N[C@H]2CC3CCC2C3)sc1C(=O)c1ccc([N+](=O)[O-])cc1 (stereo partly shown) [MC180340] | 2.83 | 13 | 11.6 | 3.41 | 3.54 | –
9 | N#Cc1ccccc1C(=O)c1sc(N[C@H]2CC3CCC2C3)nc1N (stereo partly drawn) [MC180342, 2-(4-amino-2-(((2S)-bicyclo[2.2.1]heptan-2-yl)amino)thiazole-5-carbonyl)benzonitrile] | 22.7 | 107 | – | 78.8 | 10.42 | –
10 | Nc1nc(N[C@H]2CC3CCC2C3)sc1C(=O)c1ccc2nonc2c1 (stereo partly shown) [MC180345] | 3.58 | 3.61 | 3.99 | 12.6 | 1.87 | –
11 | Nc1nc(N[C@H]2CC3CCC2C3)sc1C(=O)c1cccc2nonc12 (stereo partly drawn) [MC180349, (4-amino-2-(((2S)-bicyclo[2.2.1]heptan-2-yl)amino)thiazol-5-yl)(benzo[c][1,2,5]oxadiazol-4-yl)methanone] | 27.5 | 91.2 | 74.5 | 36.6 | 10.98 | –
12 | O=C(/C=C/N1C[C@H]2C[C@@H]1CN2c1ccccn1)c1ccccc1O [PFI-3] | – | – | – | – | – | effect on GFP activation by HH1 or iCDK9 (YB5 cells [1]; 72 hr daily pre-treatment followed by 24 hr co-treatment): inhibited GFP activation
13 | CC(C)(C)c1cnc(CSc2cnc(NC(=O)C3CCNCC3)s2)o1 [SNS-032] | – | – | – | – | – | survival (ID8; 10 mg/kg): extend the survival of the mice significantly; tumor burden (ID8; 10 mg/kg): reduce tumor burden; immune cells (CD45+) and T cells (CD3+) in the tumor microenvironment (ID8; in vivo treatment, ascites fluid, flow cytometry): increased populations
14 | CN1CC[C@H](c2c(O)cc(O)c3c(=O)cc(-c4ccccc4Cl)oc23)[C@H](O)C1 [flavopiridol] | – | – | – | – | – | expression of SYNE1 and MGMT (YB5 cells [4]): gene reactivation
15 | NC1CCC(Nc2cc(-c3cccc(NCc4cccc(F)c4)n3)c(Cl)cn2)CC1 (stereo not shown) [iCDK9] | – | – | – | – | – | expression of SYNE1 and MGMT (YB5 cells [4]): gene reactivation
